Consider 5 molecules from publication PMC11873616 (Acta Pharmaceutica Sinica. B, 2024).

Assay [1] relates to IEC6 cells. Kind of assay: Fibrosis/EMT-related gene and protein expression in TGFβ1-induced EMT cell model. Particulars: for expression of fibrotic genes and proteins (Vimentin, αSMA): TGFβ1, oxamate 20 mmol/L, DCA 20 mmol/L or rotenone 10 nmol/L. It is filed as cell-based, rat.
In the next assay the test system is Smad2 or Smad3. Kind of assay: Smad2/Smad3 phosphorylation after lactate treatment. It is filed as cell-based.
For assay [2], the system named is IEC6 cells. Nature of the assay: Histone lactylation. The note with it: exogenous lactate, Western blot, n = 3. It is filed as cell-based, rat. On the technique in general: Immunoblotting shows a protein as a band on a membrane.
Assay [3] relates to IEC6 cells. Nature of the assay: Lactate determination in cell culture supernatant. It is filed as cell-based, rat. The note with it: TGFβ1 10 ng/mL, 2DG 1 mmol/L, 7 days, n = 6.
Assay [4] concerns IEC6 cells. Nature of the assay: Glycolysis and metabolic gene expression in TGFβ1-induced cells. It is filed as cell-based, rat. Particulars: TGFβ1 + 2DG vs TGFβ1, n = 7–8.

As for `O=C(O)C(Cl)Cl` [DCA, sodium dichloroacetate], the “expression of fibrotic genes and proteins (Vimentin, αSMA)” value (“expression … (Vimentin, αSMA)” for short) in the assay on IEC6 cells [1] is listed as “more pronounced reduction”. Consider `C=C(C)[C@H]1Cc2c(ccc3c2O[C@@H]2COc4cc(OC)c(OC)cc4[C@@H]2C3=O)O1` [rotenone], for which, in the assay on IEC6 cells [1], the “expression … (Vimentin, αSMA)” value is “increased the expression of fibrotic genes”. In the case of `CC(O)C(=O)O` (stereo not drawn) [lactate], the “phosphorylation of Smad2 or Smad3” value with Smad2 or Smad3 is “did not alter”. In addition, the “expression of fibrotic genes after lactate stimulation (qRT-PCR)” value in the assay with IEC6 cells [1] (lactate 10 mmol/L for 72 h, no TGFβ1, n = 6) is listed as “significantly elevated”. For the same molecule, in the assay on IEC6 cells [2], the “site-specific histone lactylation (H2BK16la, H3K9la, H3K18la, H4K5la and H4K12la)” value is given as “induced overwhelming lactylation modifications”. Consider `O=CC[C@@H](O)[C@H](O)[C@H](O)CO` [Peptide 2DG, 2-Deoxy-D-glucose], for which the “lactate levels (TGFβ1-mediated extracellular lactate production)” value with IEC6 cells [3] was “substantial reduction”. Moreover, the “glycolysis (GSEA-KEGG of gene expression)” value with IEC6 cells [4] is reported as “effectively inhibited glycolysis”. Also, the “expression of fibrotic genes and proteins” value with IEC6 cells [1] (TGFβ1 10 ng/mL, 2DG 1 mmol/L, 7 days) is given as “substantial reduction”. As to `NC(=O)C(=O)O` [oxamate], the “expression … (Vimentin, αSMA)” value in the assay on IEC6 cells [1] is recorded as “more pronounced reduction”.
